{"source": "patent US20030044861A1", "about": "“Method for diagnosing neoplasia” (priority 1998, published 2003)", "key": {"HCT116, Colon": {"tested_on": "HCT116, Colon", "assay": "Growth inhibition of HCT116 cells", "format": "cell-based", "details": "Homo sapiens, HCT-116", "experimental": "(§1) Briefly, suspected neoplastic tissue samples are removed from a patient and grown as explants in vitro. The tissue samples are grown in the presence and absence of a cGMP-specific PDE inhibitor. After being grown in culture, cells are fixed by the addition of cold trichloroacetic acid. Protein levels are measured using the sulforhodamine B (SRB) colorimetric protein stain assay as previously described by Skehan, P., Storeng, R., Scudiero, D., Monks, A., McMahon, J., Vistica, D., Warren, J. T., Bokesch, H., Kenney, S., and Boyd, M. R., “New Colorimetric Assay For Anticancer-Drug Screening,” J. Natl. Cancer Inst. 82: 1107-1112, 1990, which is incorporated herein by reference.\n(§2) To show the effectiveness of cGMP-specific PDE inhibition on various forms of neoplasia, (and, therefore, the usefulness of the diagnostic methods of this invention) cGMP-specific PDE inhibitors were tested on a number of neoplastic cell lines. […] Exisulind is defined as (Z)-5-fluoro-2-methyl-1-[[4-(methylsulfonyl)phenyl]methylene]indene-3-yl acetic acid or a salt thereof. The IC50 values were determined by the SRB assay."}, "A-427, Lung": {"tested_on": "A-427, Lung", "assay": "Growth inhibition of A-427 cells", "format": "cell-based", "details": "Homo sapiens", "experimental": "as §1, §2"}, "[1]": {"target": "T1, PDE peak A (PDE5) from SW-480 cells (Homo sapiens, UniProt O76074)", "T1 construct": "SW-480 cells are collected and homogenized; The homogenate is centrifuged, and the supernatant is loaded onto a DEAE-Trisacryl M column; endogenous in cells; host or cells: SW-480 human colon carcinoma cells, DEAE-Trisacryl M fraction peak A", "assay": "cGMP hydrolysis by PDE peak A", "format": "biochemical"}, "neoplastic cells": {"tested_on": "neoplastic cells", "assay": "Apoptosis induction and growth inhibition in neoplastic cells (words only)", "format": "cell-based"}, "HT-29 cells": {"tested_on": "HT-29 cells", "assay": "Apoptosis and necrosis by morphology (acridine orange/ethidium bromide)", "format": "cell-based", "details": "HT-29 cells treated for six days", "experimental": "In one type of apoptosis assay, suspected neoplastic cells are removed from a patient. The cells are then grown in culture in the presence or absence of a cGMP-specific PDE inhibitor. Apoptotic cells are measured by combining both the attached and “floating” compartments of the cultures. The protocol for treating tumor cell cultures with PDE inhibitors and related compounds to obtain a significant amount of apoptosis has been described in the literature. (See, Piazza, G. A., et al., Cancer Research, 55:3110-16, 1995, which is incorporated herein by reference). The novel features of this assay include collecting both floating and attached cells, identification of the optimal treatment times and dose range for observing apoptosis, and identification of optimal cell culture conditions.\nFollowing treatment of neoplastic and normal cells with a test compound, cultures can be assayed for apoptosis and necrosis by fluorescent microscopy following labeling with acridine orange and ethidium bromide. The method for measuring apoptotic cell number has previously been described by Duke & Cohen, “Morphological And Biochemical Assays Of Apoptosis,” Current Protocols In Immunology, Coligan et al., eds. 3.17.1-3.17.16 (1992, which is incorporated herein by reference).\nFor example, floating and attached cells are collected, and aliquots of cells are centrifuged. The cell pellet is then resuspended in media and a dye mixture containing acridine orange and ethidium bromide. The mixture is then examined microscopically for morphological features of apoptosis.\nApoptotic and necrotic cell death was determined as previously described (Duke and Cohen, In: Current Protocols in Immunology, 3.17.1-3.17.16, New York, John Wiley and Sons, 1992). […] All data were collected from the same experiment.\nThe diagnostic method of this invention is used to determine whether a particular neoplasia is sensitive to treatment with a cGMP-specific PDE inhibitor. The apoptosis inducing activity for a series of phosphodiesterase inhibitors, specific for different PDEs, was determined. HT-29 cells were treated for 6 days with various inhibitors of phosphodiesterase. Apoptosis and necrosis were determined morphologically after acridine orange and ethidium bromide labeling in accordance with the assay described, supra."}, "[2]": {"tested_on": "PDE peak B (novel cGMP-specific PDE) from SW-480 cells", "assay": "cGMP hydrolysis by PDE peak B", "format": "biochemical, human"}}, "data": [{"smiles": "CSc1ccc(/C=C2/C(C)=C(CC(=O)O)c3cc(F)ccc32)cc1", "note": "[Sulindac sulfide]", "values": [{"measurement": "IC50", "setting": "HCT116, Colon", "value": 45, "unit": "µM"}, {"measurement": "IC50", "setting": "A-427, Lung", "value": 90, "unit": "µM"}, {"measurement": "Mode of inhibition of cGMP hydrolysis, peak A", "setting": "[1]", "value": "competitively inhibit"}, {"measurement": "Apoptosis induction in neoplastic cells (in words)", "setting": "neoplastic cells", "value": "induce apoptosis in neoplastic cells"}, {"measurement": "Growth inhibition of neoplastic cells (in words)", "setting": "neoplastic cells", "value": "precisely the opposite"}, {"measurement": "Apoptotic and necrotic cell death (FIG. 1, in words)", "setting": "HT-29 cells", "value": "capable of causing apoptotic cell death without inducing neoplastic cell necrosis"}, {"measurement": "Mode of inhibition of cGMP hydrolysis, peak B", "setting": "[2]", "value": "competitively inhibit"}]}]}
